Legend:
[1] = tested on: non small cell lung cancer (NSCLC) A549 cells; test: A549 xenograft tumor in NSG mice; format: in vivo; conditions: 5 mg/kg daily ip for 4 weeks
Description: A xenograft tumor was induced by subcutaneous injection of 5×10^6 non small cell lung cancer (NSCLC) A549 cells in mice according to an embodiment.
A xenograft tumor was induced by subcutaneous injection of 5×10^6 non small cell lung cancer (NSCLC) A549 cells in mice. After 3 weeks, tumors became visible (˜200 mm^3, as measured with calipers). Mice were treated with INK128, or vehicle control (FIG. 10A), daily (via ip) for 4 weeks. INK-128 was used at 5 mg/kg (FIG. 10B). Tumor volume was measured at the indicated time points (FIG. 10C).

HIV BaL = HIV BaL infection of NSG mice reconstituted with human PBLs

In the case of CC(C)n1nc(-c2ccc3oc(N)nc3c2)c2c(N)ncnc21 [INK128, 5-(4-amino-1-propan-2-ylpyrazolo[3,4-d]pyrimidin-3-yl)-1,3-benzoxazol-2-amine], the tumor growth [1] was “inhibits tumor growth”, the “mean CD4/CD8 cell ratio” value (HIV BaL; day 14, 1 mg/kg/day i.p.) was 0.11 and the “mean CD4/CD8 cell ratio” value (HIV BaL; day 14, 3 mg/kg/day i.p.) was 0.18. For the same compound, the “mean CD4/CD8 cell ratio” value (HIV BaL; day 14, 5 mg/kg/day i.p.) was 0.76.

Source: US11364242B2, “Treatment agents for inhibiting HIV and cancer in HIV infected patients” (UNIVERSITY OF MARYLAND, BALTIMORE, priority 2015, dated 2022)
